Data set [1] has as its target T1, HCV polymerase (Hepatitis C virus genotype 1b, UniProt P26663).
T1 construct: a region encoding NS5B (591 amino acids; J Virol 1991 Mar, 65(3), 1105-13) was amplified by PCR; 6 His (N); made in house; host or cells: Escherichia coli
Description: biochemical.

The mark [2] stands for this setting: read-out: HCV polymerase inhibitory activity IC50.

Consider 24 molecules from patent publication US20040082635A1, “Fused cyclic compounds and medicinal use thereof” (priority 2001, published 2004).

Structures can show the parent of a compound that is named as a salt. Where two headings read alike, the source gives them in different places. A value given as a limit tells only on which side of the number the result lay.

T1 sequence (P26663 2420-3010): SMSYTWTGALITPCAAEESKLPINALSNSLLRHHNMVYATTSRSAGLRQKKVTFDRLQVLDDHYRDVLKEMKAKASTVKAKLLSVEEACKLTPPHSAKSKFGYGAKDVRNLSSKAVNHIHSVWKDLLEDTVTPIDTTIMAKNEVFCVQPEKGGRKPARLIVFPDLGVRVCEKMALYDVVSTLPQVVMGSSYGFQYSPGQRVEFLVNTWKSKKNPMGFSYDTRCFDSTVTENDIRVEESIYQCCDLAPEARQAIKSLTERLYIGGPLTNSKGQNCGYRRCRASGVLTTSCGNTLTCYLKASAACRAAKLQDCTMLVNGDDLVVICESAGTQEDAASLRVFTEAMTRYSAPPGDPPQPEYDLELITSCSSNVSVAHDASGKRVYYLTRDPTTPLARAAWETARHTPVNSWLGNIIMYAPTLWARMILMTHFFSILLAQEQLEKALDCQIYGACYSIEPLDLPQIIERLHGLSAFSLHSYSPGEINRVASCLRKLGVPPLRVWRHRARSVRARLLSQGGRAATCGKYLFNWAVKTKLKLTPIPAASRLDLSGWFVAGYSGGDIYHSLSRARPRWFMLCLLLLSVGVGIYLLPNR

A word on the melting point: it is the temperature of the solid-liquid transition. `NC(=O)c1ccc2c(c1)nc(-c1ccc(OCc3ccccc3)cc1)n2C1CCCC1` registered a melting point of 232 to 233 °C.
Same read-out and setting: for `O=C(O)c1ccc2c(c1)nc(-c1ccc(OCc3cc(Cl)ccc3-c3ccc(Cl)cc3)cc1)n2C1CCCCC1` [Example 6] the value was 243 to 244 °C.
The same measure, in the same setting: for `Cl.O=C(O)c1ccc2c(c1)nc(-c1ccc(OCc3cc(N4CCCC4=O)ccc3-c3ccc(Cl)cc3)cc1F)n2C1CCCCC1` the value was 243 to 246 °C.
A word on the IC50: it is the midpoint of a concentration-inhibition curve. `O=C(O)c1ccc2c(c1)nc(-c1ccc(OCc3ncccc3-c3ccc(Cl)cc3)cc1)n2C1CCCCC1` [Example 235, 2-{4-[{3-(4-chlorophenyl)-2-pyridyl}methoxy]phenyl}-1-cyclohexylbenzimidazole-5-carboxylic acid]: the IC50 in data set [1] (setting [2]) was 36 nM.
On to `COc1ccc(-c2ccc(Cl)cc2)c(COc2ccc(-c3nc4cc(C(=O)O)ccc4n3C3CCSCC3)cc2)c1` [Example 264, 2-{4-[2-(4-chlorophenyl)-5-methoxybenzyloxy]phenyl}-1-(4-tetrahydrothiopyranyl)benzimidazole-5-carboxylic acid], for which, in data set [1] (setting [2]), the IC50 was below 10 nM.
In the case of `O=C(O)c1ccc2c(c1)nc(-c1ccc(OCc3cc(Cl)ccc3-c3ccc(F)cc3)cc1)n2C1CCCCC1` [Example 171, 2-{4-[3-chloro-6-(4-fluorophenyl)benzyloxy]phenyl}-1-cyclohexylbenzimidazole-5-carboxylic acid], in data set [1] (setting [2]), the IC50 turned out to be 50 nM.
Still for that read-out and setting: for `CCN(C)C(=O)c1ccc(-c2ccc(Cl)cc2)c(COc2ccc(-c3nc4cc(C(=O)O)ccc4n3C3CCCCC3)c(F)c2)c1` [Example 384, 2-{4-[2-(4-chlorophenyl)-5-(N-ethyl-N-methylcarbamoyl)benzyloxy]-2-fluorophenyl}-1-cyclohexylbenzimidazole-5-carboxylic acid hydrochloride] the value was 16 nM.
Take `O=C(O)c1ccc2c(c1)nc(-c1ccc(OCCOc3ccccc3)cc1)n2C1CCCCC1` [Example 96, 1-cyclohexyl-2-{4-[2-(phenoxy)ethoxy]phenyl}benzimidazole-5-carboxylic acid]: the IC50 in data set [1] (setting [2]) worked out at 250 nM.
Same read-out and setting: for `CC(C)N(C)C(=O)c1ccc(-c2ccc(Cl)cc2)c(COc2ccc(-c3nc4cc(C(=O)O)ccc4n3C3CCCCC3)c(F)c2)c1` [Example 386, 2-{4-[2-(4-chlorophenyl)-5-(N-isopropyl-N-methylcarbamoyl)-benzyloxy]-2-fluorophenyl}-1-cyclohexylbenzimidazole-5-carboxylic acid hydrochloride] the value was 18 nM.
Consider `NC(=O)c1ccc(-c2ccc(Cl)cc2COc2ccc(-c3nc4cc(C(=O)O)ccc4n3C3CCCCC3)cc2)cc1` [Example 195, 2-{4-[2-(4-carbamoylphenyl)-5-chlorobenzyloxy]phenyl}-1-cyclohexylbenzimidazole-5-carboxylic acid], for which the IC50 in data set [1] (setting [2]) was found to be 23 nM.
Turning to `Cc1nc(COc2ccc(-c3nc4cc(C(=O)O)ccc4n3C3CCCCC3)cc2)c(-c2ccc(Cl)cc2)o1` [Example 199, 1-cyclohexyl-2-{4-[{2-methyl-5-(4-chlorophenyl)-4-oxazolyl}-methoxy]phenyl}benzimidazole-5-carboxylic acid], the IC50 in data set [1] (setting [2]) was found to be 110 nM.
As for `O=C(O)c1ccc2c(c1)nc(-c1ccc(OCc3cc(F)ccc3-c3ccc(Cl)cc3)cc1)n2C1CCCCC1` [Example 188, 2-{4-[2-(4-chlorophenyl)-5-fluorobenzyloxy]phenyl}-1-cyclohexylbenzimidazole-5-carboxylic acid], the half-inhibitory concentration (IC50) in data set [1] (setting [2]) turned out to be 38 nM.
For the molecule `O=C(O)c1ccc2c(c1)nc(-c1ccc(OCc3cc(Cl)ccc3-c3ccccc3C(F)(F)F)cc1)n2C1CCCCC1` [Example 151, 2-{4-[3-chloro-6-(2-trifluoromethylphenyl)benzyloxy]phenyl}-1-cyclohexylbenzimidazole-5-carboxylic acid], in data set [1] (setting [2]), the IC50 was determined as 200 nM.
Still for that read-out and setting: for `N/C(=N\O)c1ccc(-c2ccc(Cl)cc2)c(COc2ccc(-c3nc4cc(C(=O)O)ccc4n3C3CCCCC3)c(F)c2)c1` [Example 373, 2-{4-[2-(4-chlorophenyl)-5-(N-hydroxyamidino)benzyloxy]-2-fluorophenyl}-1-cyclohexylbenzimidazole-5-carboxylic acid dihydrochloride] the value was 13 nM.
Same read-out and setting: the same measure for `Cc1nc(-c2ccc(C(=O)N(C)C)cc2)c(COc2ccc(-c3nc4cc(C(=O)O)ccc4n3C3CCCCC3)cc2)s1` [Example 231, 1-cyclohexyl-2-{4-[{4-(4-dimethylcarbamoylphenyl)-2-methyl-5-thiazolyl}methoxy]phenyl}benzimidazole-5-carboxylic acid]: 73 nM.
`O=C(O)c1ccc(-c2ccc(Cl)cc2COc2ccc(-c3nc4cc(C(=O)O)ccc4n3C3CCCCC3)cc2)cc1` [Example 184, 2-{4-[2-(4-carboxyphenyl)-5-chlorobenzyloxy]phenyl}-1-cyclohexylbenzimidazole-5-carboxylic acid]: the 50% inhibitory concentration (IC50) in data set [1] (setting [2]) is 18 nM.
Same read-out and setting: the same measure for `CC(C)NC(=O)c1ccc(-c2ccc(Cl)cc2)c(COc2ccc(-c3nc4cc(C(=O)O)ccc4n3C3CCCCC3)cc2)c1` [Example 330, 2-{4-[2-(4-chlorophenyl)-5-(isopropylcarbamoyl)benzyloxy]phenyl}-1-cyclohexylbenzimidazole-5-carboxylic acid hydrochloride]: 11 nM.
On the same count and under the same terms, the same measure for `O=C(O)c1ccc(-c2ncccc2COc2ccc(-c3nc4cc(C(=O)O)ccc4n3C3CCCCC3)cc2)cc1` [Example 263, 2-{4-[{2-(4-carboxyphenyl)-3-pyridyl}methoxy]phenyl}-1-cyclohexylbenzimidazole-5-carboxylic acid]: 35 nM; for `CS(=O)(=O)c1ccc(-c2ccc(Cl)cc2)c(COc2ccc(-c3nc4cc(C(=O)O)ccc4n3C3CCCCC3)cc2)c1` [Example 280, 2-{4-[2-(4-chlorophenyl)-5-methanesulfonylbenzyloxy]phenyl}-1-cyclohexylbenzimidazole-5-carboxylic acid]: 16 nM; for `O=C(O)c1ccc2c(c1)nc(-c1ccc(OCc3cc(Cl)ccc3-c3cccs3)cc1)n2C1CCCCC1` [Example 168, 2-{4-[3-chloro-6-(2-thienyl)benzyloxy]phenyl}-1-cyclohexylbenzimidazole-5-carboxylic acid]: 78 nM.
The molecule `CN(C)C(=O)c1ccc(-c2ccc(Cl)cc2)c(COc2ccc(-c3nc4cc(C(=O)O)ccc4n3C3CCCCC3)cc2)c1` [Example 232, 2-{4-[2-(4-chlorophenyl)-5-dimethylcarbamoylbenzyloxy]phenyl}-1-cyclohexylbenzimidazole-5-carboxylic acid] had an IC50 in data set [1] (HCV polymerase inhibitory activity IC50) of 15 nM.
`O=C(O)c1ccc2c(c1)nc(-c1ccc(OCc3ccc(C(F)(F)F)cc3)cc1)n2C1CCCC1` [Example 47, 1-cyclopentyl-2-[4-(4-trifluoromethylbenzyloxy)phenyl]benzimidazole-5-carboxylic acid]: the IC50 in data set [1] (setting [2]) was 540 nM.
The same measure, in the same setting: the same measure for `O=C(O)c1ccc2c(c1)nc(-c1ccc(OCc3cc(Cl)ccc3Br)cc1)n2C1CCCCC1` [Example 173, 2-[4-(2-bromo-5-chlorobenzyloxy)phenyl]-1-cyclohexylbenzimidazole-5-carboxylic acid]: 140 nM; for `O=C(O)c1ccc2c(c1)nc(-c1ccc(OC3CCN(Cc4ccc(Cl)cc4)CC3)cc1)n2C1CCCCC1` [Example 223, 2-{4-[1-(4-chlorobenzyl)-4-piperidyloxy]phenyl}-1-cyclohexylbenzimidazole-5-carboxylic acid]: 210 nM.
